Counter-ions that a name gives are not always drawn.
What was measured:
L1210 murine leukaemia = assay: In vitro cytotoxicity, L1210 murine leukaemia (Microculture Tetrazolium Assay); type: cell-based; conditions: Mus musculus; L1210, 48 hours exposure (4 doubling periods); read-out: IC50, concentration of cytotoxic agent that inhibits the proliferation of the treated cells by 50%
Description: (§1) L1210 murine leukaemia was used in vitro. The cells are cultured in RPMI 1640 complete culture medium containing 10% foetal calf serum, 2 mM glutamine, 50 units/ml of penicillin, 50 μg/ml of streptomycin and 10 mM Hepes, pH=7.4. The cells are distributed on microplates and are exposed to the cytotoxic compounds for 4 doubling periods, or 48 hours. The number of viable cells is then quantified by a colorimetric assay, the Microculture Tetrazolium Assay (J. Carmichael et al., Cancer Res.; 47, 939-942 (1987)). The results are expressed as the IC50, the concentration of cytotoxic agent that inhibits the proliferation of the treated cells by 50%.

[1] = test system: A549 non-small-cell lung carcinoma; assay: In vitro cytotoxicity, human solid tumour cell line A549; type: cell-based; conditions: 96 h, incubation 4 days
Description: as §1
(§2) The compounds of the invention were also tested on human cell lines originating from solid tumours, in accordance with the same test protocol as that described for L1210 murine leukaemia but with incubation periods of 4 days instead of 2 days.

HT-29 colon carcinoma = assay: In vitro cytotoxicity, human solid tumour cell line HT-29; type: cell-based; conditions: 96 h, incubation 4 days
Description: as §1, §2

DU145 prostate carcinoma = assay: In vitro cytotoxicity, human solid tumour cell line DU145; type: cell-based; conditions: DU-145, 96 h, incubation 4 days
Description: as §1, §2

[2] = test system: KB-3-1 epidermoid carcinoma; assay: In vitro cytotoxicity, human solid tumour cell line KB-3-1; type: cell-based; conditions: 96 h, incubation 4 days
Description: as §1, §2

| SMILES | melting point | further results |
| --- | --- | --- |
| Cn1c(=O)c2c3cc(OCCO)ccc3c3c(oc4cccnc4n3C(=O)Oc3ccccc3)c2c1=O [Example 8, 8-(Phenoxycarbonyl)-5-(2-hydroxyethoxy)-2-methyl-2,3-dihydrobenzo[e]pyrido[2′,3′:5,6][1,4]oxazino[3,2-g]isoindole-1,3-dione] | 250 °C | – |
| CN(C)CCn1c(=O)c2c3cc(O)ccc3c3c(oc4ccccc4n3C(=O)OC(C)(C)C)c2c1=O [Example 1, 8-(tert-Butoxycarbonyl)-2-[2-(dimethylamino)ethyl]-5-hydroxy-2,3-dihydrobenzo[a]pyrrolo[3,4-c]phenoxazine-1,3-dione] | 190 °C (dec.) | – |
| CN(C)CCn1c(=O)c2c3cc(O)ccc3c3[nH]c4ccccc4oc3c2c1=O [Example 2, 2-[2-(Dimethylamino)ethyl]-5-hydroxybenzo[a]pyrrolo[3,4-c]phenoxazine-1,3-dione hydrochloride] | – | IC50 (L1210 murine leukaemia): 0.25 µM; IC50 [1]: 0.16 µM; IC50 (HT-29 colon carcinoma): 0.6 µM; IC50 (DU145 prostate carcinoma): 0.27 µM; IC50 [2]: 0.26 µM |
| CN(C)CCn1c(=O)c2c3cc(OCCO)ccc3c3c(oc4ccccc4n3C(=O)OC(C)(C)C)c2c1=O [Example 3, 8-(tert-Butoxycarbonyl)-2-[2-(dimethylamino)ethyl]-5-(2-hydroxy-ethoxy)-2,3-dihydrobenzo[a]pyrrolo [3,4-c]phenoxazine-1,3-dione] | > 80 °C (dec.) | – |

Further lines, with some results ahead:

| melting point | SMILES | further results |
| --- | --- | --- |
| 202 °C | CN(C)CCn1c(=O)c2c3cc(OCCO)ccc3c3c(oc4ccccc4n3C=O)c2c1=O [Example 7, 8-(Formyl)-2-[2-(dimethylamino)ethyl]-5-(2-hydroxyethoxy)-benzo[a]pyrrolo[3,4-c]phenoxazine-1,3-dione] | – |
| 216 °C | CN(C)CCn1c(=O)c2c3cc(OCCO)ccc3c3[nH]c4ccccc4oc3c2c1=O [Example 6, 2-[2-(Dimethylamino)ethyl]-5-(2-hydroxyethoxy)benzo-[a]pyrrolo[3,4-c]phenoxazine-1,3-dione] | – |

Reference: US7312213B2, “Substituted benzo[e][1,4]oxazino[3,2-g]isoindole compounds” (Les Laboratories Servier, priority 2002, dated 2007)
